Results as given in US20230040770A1, “HETEROCYCLIC COMPOUND AND USE THEREOF” (TAKEDA PHARMACEUTICAL COMPANY LIMITED, priority 2019, published 2023).

molecular target: T1, human orexin type 2 receptor (Homo sapiens, UniProt O43614); assay: Measurement of orexin type 2 receptor agonist activity (calcium indicator fluorescence, CHO cells forcibly expressing human OX2 receptor); assay type: cell-based; conditions: compound at 3 μM; 0% = DMSO, 100% = orexin A (human) 10 nM
T1 construct: expressed in transfected cells
T1 sequence (O43614 1-444): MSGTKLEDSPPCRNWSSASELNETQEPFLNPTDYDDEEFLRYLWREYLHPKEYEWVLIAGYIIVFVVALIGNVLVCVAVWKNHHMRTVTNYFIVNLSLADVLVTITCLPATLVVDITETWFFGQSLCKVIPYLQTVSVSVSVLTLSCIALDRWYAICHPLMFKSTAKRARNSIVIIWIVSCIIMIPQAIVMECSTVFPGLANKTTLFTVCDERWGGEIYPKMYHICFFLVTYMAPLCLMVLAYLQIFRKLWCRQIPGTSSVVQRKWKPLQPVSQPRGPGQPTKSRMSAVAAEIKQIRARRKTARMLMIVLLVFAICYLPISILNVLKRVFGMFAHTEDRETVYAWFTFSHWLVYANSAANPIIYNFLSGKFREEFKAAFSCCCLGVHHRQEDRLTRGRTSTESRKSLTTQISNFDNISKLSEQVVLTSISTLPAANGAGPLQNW
How it was run: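 CHO-dhfr cells stably expressing human OX2R, loaded with Fluo-4 AM (30 min 37 °C, then 30 min RT), then given test compound. Calcium fluorescence read by FDSS over ~2 min. Activity (%) scaled from DMSO (0%) to 10 nM final orexin A (100%).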

Row | SMILES | OX2R agonist activity (3 μM, %) [%]
1 | CC(C)C(=O)N1C[C@H](F)[C@H](NS(C)(=O)=O)[C@@H]1Cc1cccc(-c2cccc(F)c2F)c1F [Example 314, N-{(2S,3R,4S)-4-fluoro-1-(2-methylpropanoyl)-2-[(2,2′,3′-trifluoro[1,1′-biphenyl]-3-yl)methyl]pyrrolidin-3-yl}methanesufonamide] | 109
2 | CCS(=O)(=O)N[C@H]1[C@@H](F)CN(C(=O)C(C)(C)O)[C@H]1Cc1cccc(-c2cccc(F)c2F)c1F [Example 222, N-{(2S,3R,4S)-4-fluoro-1-(2-hydroxy-2-methylpropanoyl)-2-[(2,2′,3′-trifluoro[1,1′-biphenyl]-3-yl)methyl]pyrrolidin-3-yl}ethanesulfonamide] | 97
3 | Cc1cccc(-c2cccc(C[C@H]3[C@@H](NS(=O)(=O)C4CC4)C(F)(F)CN3C(=O)[C@H]3CCO3)c2F)c1F [Example 530, N-{(2S,3R)-2-[(2,2′-difluoro-3′-methyl[1,1′-biphenyl]-3-yl)methyl]-4,4-difluoro-1-[(2R)-oxetane-2-carbonyl]pyrrolidin-3-yl}cyclopropanesulfonamide] | 94
4 | CCS(=O)(=O)N[C@@H]1[C@H](Cc2cccc(-c3cc(C)cc(F)c3)c2F)N(C(=O)C2(O)CCC2)CC1(F)F [Example 394, N-[(2S,3R)-2-[(2,3′-difluoro-5′-methyl[1,1′-biphenyl]-3-yl)methyl]-4,4-difluoro-1-(1-hydroxycyclobutane-1-carbonyl)pyrrolidin-3-yl]ethanesulfonamide] | 86
5 | CCS(=O)(=O)N[C@H]1[C@@H](F)CN(C(=O)C(C)(C)O)[C@H]1Cc1cccc(-c2cc(F)cc(F)c2)c1F [Example 220, N-{(2S,3R,4S)-4-fluoro-1-(2-hydroxy-2-methylpropanoyl)-2-[(2,3′,5′-trifluoro[1,1′-biphenyl]-3-yl)methyl]pyrrolidin-3-yl}ethanesulfonamide] | 90
6 | CCS(=O)(=O)N[C@@H]1[C@H](Cc2cccc(-c3ccccc3)c2F)N(C(=O)C2CCO2)CC1(F)F (stereo partly drawn) [Example 45, N-[(2S,3R)-4,4-difluoro-2-[(2-fluoro[1,1′-biphenyl]-3-yl)methyl]-1-(oxetane-2-carbonyl)pyrrolidin-3-yl]ethanesulfonamide] | 98
7 | CCS(=O)(=O)N[C@@H]1[C@H](Cc2cccc(-c3ccccc3)c2F)N(C(=O)C2CC2)CC1(F)F [Example 205, N-{(2S,3R)-1-(cyclopropanecarbonyl)-4,4-difluoro-2-[(2-fluoro[1,1′-biphenyl]-3-yl)methyl]pyrrolidin-3-yl}ethanesulfonamide] | 91
8 | O=C(N1CCC1)N1C[C@H](F)[C@H](NS(=O)(=O)C2CC2)[C@@H]1Cc1cccc(-c2cc(F)cc(F)c2)c1F [Example 544, N-{(2S,3R,4S)-1-(azetidine-1-carbonyl)-4-fluoro-2-[(2,3′,5′-trifluoro[1,1′-biphenyl]-3-yl)methyl]pyrrolidin-3-yl}cyclopropanesulfonamide] | 90
9 | CS(=O)(=O)N[C@H]1[C@@H](F)CN(C(=O)C2CCO2)[C@H]1Cc1cccc(-c2cc(F)cc(F)c2)c1F (stereo partly drawn) [Example 324, N-{(2S,3R,4S)-4-fluoro-1-(oxetane-3-2-carbonyl)-2-[(2,3′,5′-trifluoro[1,1′-biphenyl]-3-yl)methyl]pyrrolidin-3-yl}methanesulfonamide] | 91
10 | CCS(=O)(=O)N[C@@H]1[C@H](Cc2cccc(-c3cc(F)ccc3F)c2F)N(C(=O)[C@H]2C[C@H](F)C2)CC1(F)F [Example 376, N-{(2S,3R)-4,4-difluoro-1-((1r,3S)-3-fluorocyclobutane-1-carbonyl)-2-[(2,2′,5′-trifluoro[1,1′-biphenyl]-3-yl)methyl]pyrrolidin-3-yl}ethanesulfonamide] | 99
11 | CC(C)(O)C(=O)N1CC(F)(F)[C@H](NS(C)(=O)=O)[C@@H]1Cc1cccc(-c2ccccc2)c1F [Example 4, N-[(2S,3R)-4,4-difluoro-2-[(2-fluoro[1,1′-biphenyl]-3-yl)methyl]-1-(2-hydroxy-2-methylpropanoyl)pyrrolidin-3-yl]methanesulfonamide] | 101
12 | CCS(=O)(=O)N[C@@H]1[C@H](Cc2cccc(-c3cc(F)c(F)cc3F)c2F)N(C(=O)C2CCO2)CC1(F)F (stereo partly drawn) [Example 469, N-{(2S,3R)-4,4-difluroo-1-(oxetane-2-carbonyl)-2-[(2,2′,4′5′-tetrafluoro[1,1′-biphenyl]-3-yl)methyl]pyrrolidin-3-yl}ethanesulfonamide] | 91
13 | CCS(=O)(=O)N[C@@H]1[C@H](Cc2cccc(-c3cccc(OC)c3)c2F)N(C(=O)C2CC2)CC1(F)F [Example 512, N-{(2S,3R)-1-(cyclopropanecarbonyl)-4,4-difluoro-2-[(2-fluoro-3′-methoxy[1,1′-biphenyl]-3-yl)methyl]pyrrolidin-3-yl}ethanesulfonamide] | 95
14 | CCS(=O)(=O)N[C@@H]1[C@H](Cc2cccc(-c3cc(F)cc(F)c3)c2)N(C(=O)C(C)C)CC1(F)F [Example 116, N-[(2S,3R)-2-[(3′,5′-difluoro[1,1′-biphenyl]-3-yl)methyl]-4,4-difluoro-1-(2-methylpropanoyl)pyrrolidin-3-yl]ethanesulfonamide] | 86
15 | CCS(=O)(=O)N[C@@H]1[C@H](Cc2cccc(-c3cccc(C)c3F)c2F)N(C(=O)C(C)(C)O)CC1(F)F [Example 65, N-[(2S,3R)-2-[(2,2′-difluoro-3′-methyl[1,1′-biphenyl]-3-yl)methyl]-4,4-difluoro-1-(2-hydroxy-2-methylpropanoyl)pyrrolidin-3-yl]ethanesulfonamide] | 100
16 | O=C(C1CCO1)N1CC(F)(F)[C@H](NS(=O)(=O)C2CC2)[C@@H]1Cc1cccc(-c2cc(F)cc(F)c2)c1F (stereo partly drawn) [Example 162, N-{(2S,3R)-4,4-difluoro-1-(oxetane-2-carbonyl)-2-[(2,3′,5′-trifluoro[1,1′-biphenyl]-3-yl)methyl]pyrrolidin-3-yl}cyclopropanesulfonamide] | 92
17 | O=C(C1CCO1)N1C[C@H](F)[C@H](NS(=O)(=O)C2CC2)[C@@H]1Cc1cccc(-c2ccccc2)c1F (stereo partly drawn) [Example 482, N-[(2S,3R,4S)-4-fluoro-2-[(2-fluoro[1,1′-biphenyl]-3-yl)methyl]-1-(oxetane-2-carbonyl)pyrrolidin-3-yl]cyclopropanesulfonamide] | 100
18 | CCS(=O)(=O)N[C@H]1[C@@H](F)CN(C(=O)N(C)C)[C@H]1Cc1cccc(-c2cccc(F)c2)c1F [Example 210, (2S,3R,4S)-2-[(2,3′-difluoro[1,1′-biphenyl]-3-yl)methyl]-3-[(ethanesulfonyl)amino]-4-fluoro-N,N-dimethylpyrrolidine-1-carboxamide] | 95
19 | CCS(=O)(=O)N[C@@H]1[C@H](Cc2cccc(-c3cccc(OC(F)F)c3)c2F)N(C(=O)C2CC2)CC1(F)F [Example 550, N-[(2S,3R)-1-(cyclopropanecarbonyl)-2-{[3′-(difluoromethoxy)-2-fluoro[1,1′-biphenyl]-3-yl]methyl}-4,4-difluoropyrrolidin-3-yl]ethanesulfonamide] | 93
